Laboratory results reported in patent publication US9957270B2, “Fused pyrimidine-based hydroxamate derivatives” (Agency for Science, Technology and Research, priority 2014, dated 2018).

What was measured:
MOLT-4 = experiment: Anti-proliferative assay (cellular IC50), MOLT-4; conditions: Homo sapiens, MOLT-4, 72 h, read-out: In Vitro Cellular IC50 MOLT-4
Method: (§1) Cells were cultivated at 37° C., 5% CO2 in media containing 10% FBS and 2 mM glutamine Cells were routinely monitored with MycoAlert™ PLUS Mycoplasma Detection Kit (Lonza Walkersville, Inc.) to make sure they were mycoplasma free. Antibiotics (100 U/mL of penicillin and 100 μg/mL of streptomycin) were only added to the media used for compound dilution and cells in 96-well assay plates.
(§2) For a typical screening experiment, cells (100 μL/well) are inoculated into 96 well microtiter plates at plating densities ranging from 2,000 to 30,000 cells/well depending on the doubling time of individual cell lines and assay linearity. […] Suspension cells are treated with test compounds immediately after cell inoculation.
(§3) Test compounds are serially diluted (3-fold or 4-fold, 8-concentration) using the same media and added to the plates (15 to 25 μL/well). After 72 h of cultivation, the plates are assayed for cell cytotoxicity/viability by using the following two methods.
(§4) Cells in plates are fixed with cold trichloroacetic acid (TCA) (50% w/v in DI water, 1/4 volume of the medium in each well), and incubated at 4° C. for 1 h (adherent cells) or 2 h (suspension cells). The plates are washed 5 times (tap water×3, DI water×2) and air-dried. SRB solution 0.4% (w/v) in 1% acetic acid is added to each well (60 μL/well) and the plates are incubated at room temperature for 30 min, then washed with 1% acetic acid solution 4 times, and air-dried.
(§5) The plates are added CellTiter-Glo® Reagent (95 μL/well) and read the luminescence on a BioTek H4 reader per manufacture's protocol.
(§6) The raw data are processed using BioTek's Software Gen5 (v2.03.01) to generate inhibitory IC50 values.

HDAC1 = HDAC1 (Homo sapiens, UniProt Q13547); experiment: HDAC enzyme assay, recombinant HDAC1
PI3Kα = target: T1, PI3Kα (Homo sapiens, UniProt P42336); experiment: Kinase enzyme assay (ADP-Glo), PI3Kα; assay type: biochemical; conditions: read-out: In Vitro Enzymatic IC50 PI3Kα
T1 construct: purchased Invitrogen, or BPS Bioscience Inc., or SignalChem PV4788 / 40620 / P27-18H

[1] = target: HDAC (HeLa nuclear extracts); experiment: HDAC enzyme assay, HeLa nuclear extracts; conditions: read-out: In Vitro Enzymatic IC50 HDAC (HeLa)
COLO 205 = experiment: cells; conditions: Homo sapiens, COLO 205, 72 h, read-out: In Vitro Cellular IC50 COLO 205
Method: as §1, §2, §3, §4, §5, §6

K-562 = experiment: Anti-proliferative assay (cellular IC50), K-562; conditions: Homo sapiens, K562, 72 h, read-out: In Vitro Cellular IC50 K-562
Method: as §1, §2, §3, §4, §5, §6

HepG2 = experiment: Anti-proliferative assay (cellular IC50), HepG2; conditions: Homo sapiens, HepG2, 72 h, read-out: In Vitro Cellular IC50 HepG2
Method: as §1, §2, §3, §4, §5, §6

MCF7 = experiment: Anti-proliferative assay (cellular IC50), MCF7; conditions: Homo sapiens, MCF7, 72 h, read-out: In Vitro Cellular IC50 MCF7
Method: as §1, §2, §3, §4, §5, §6

MV-4-11 = experiment: cells; conditions: Homo sapiens, MV4-11, 72 h, read-out: In Vitro Cellular IC50 MV-4-11
Method: as §1, §2, §3, §4, §5, §6

PC-3 = experiment: Anti-proliferative assay (cellular IC50), PC-3; conditions: Homo sapiens, PC-3, 72 h, read-out: In Vitro Cellular IC50 PC-3
Method: as §1, §2, §3, §4, §5, §6

HCT 116 = experiment: cells; conditions: Homo sapiens, HCT-116, 72 h, read-out: In Vitro Cellular IC50 HCT 116
Method: as §1, §2, §3, §4, §5, §6

HDAC6 = target: T2, HDAC6 (Homo sapiens, UniProt Q9UBN7); experiment: HDAC enzyme assay, recombinant HDAC6
T2 sequence (Q9UBN7 1-1215): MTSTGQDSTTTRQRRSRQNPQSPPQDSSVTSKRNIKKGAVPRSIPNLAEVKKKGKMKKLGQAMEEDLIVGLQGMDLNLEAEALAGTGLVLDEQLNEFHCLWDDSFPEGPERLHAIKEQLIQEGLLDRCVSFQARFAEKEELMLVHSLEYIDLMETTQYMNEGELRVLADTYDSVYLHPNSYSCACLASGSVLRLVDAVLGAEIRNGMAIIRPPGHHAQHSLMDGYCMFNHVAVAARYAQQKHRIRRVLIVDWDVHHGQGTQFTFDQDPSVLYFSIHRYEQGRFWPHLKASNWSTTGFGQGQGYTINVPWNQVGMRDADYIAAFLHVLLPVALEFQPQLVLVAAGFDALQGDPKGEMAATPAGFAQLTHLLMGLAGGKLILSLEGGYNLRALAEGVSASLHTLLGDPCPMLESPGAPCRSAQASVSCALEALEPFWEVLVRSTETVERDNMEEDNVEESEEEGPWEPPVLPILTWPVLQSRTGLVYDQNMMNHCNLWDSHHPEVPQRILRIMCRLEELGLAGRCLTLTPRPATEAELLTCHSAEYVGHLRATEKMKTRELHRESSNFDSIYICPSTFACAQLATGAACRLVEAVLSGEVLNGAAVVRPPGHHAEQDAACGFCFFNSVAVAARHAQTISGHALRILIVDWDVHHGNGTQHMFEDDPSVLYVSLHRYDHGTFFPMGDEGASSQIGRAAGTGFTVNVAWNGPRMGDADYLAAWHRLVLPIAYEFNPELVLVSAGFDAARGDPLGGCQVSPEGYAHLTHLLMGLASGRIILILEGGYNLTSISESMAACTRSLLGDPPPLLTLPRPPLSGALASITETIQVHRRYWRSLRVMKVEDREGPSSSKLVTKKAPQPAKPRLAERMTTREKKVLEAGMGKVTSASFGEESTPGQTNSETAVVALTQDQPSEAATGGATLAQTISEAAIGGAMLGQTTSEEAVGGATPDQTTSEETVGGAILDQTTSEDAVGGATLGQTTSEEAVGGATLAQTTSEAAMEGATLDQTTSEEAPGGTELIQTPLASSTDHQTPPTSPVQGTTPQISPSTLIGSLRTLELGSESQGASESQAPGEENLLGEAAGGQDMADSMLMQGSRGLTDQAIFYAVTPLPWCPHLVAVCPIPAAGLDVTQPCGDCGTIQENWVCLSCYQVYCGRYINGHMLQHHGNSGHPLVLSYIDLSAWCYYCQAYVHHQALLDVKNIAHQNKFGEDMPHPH

HDAC1, sequence (Q13547 whole entry): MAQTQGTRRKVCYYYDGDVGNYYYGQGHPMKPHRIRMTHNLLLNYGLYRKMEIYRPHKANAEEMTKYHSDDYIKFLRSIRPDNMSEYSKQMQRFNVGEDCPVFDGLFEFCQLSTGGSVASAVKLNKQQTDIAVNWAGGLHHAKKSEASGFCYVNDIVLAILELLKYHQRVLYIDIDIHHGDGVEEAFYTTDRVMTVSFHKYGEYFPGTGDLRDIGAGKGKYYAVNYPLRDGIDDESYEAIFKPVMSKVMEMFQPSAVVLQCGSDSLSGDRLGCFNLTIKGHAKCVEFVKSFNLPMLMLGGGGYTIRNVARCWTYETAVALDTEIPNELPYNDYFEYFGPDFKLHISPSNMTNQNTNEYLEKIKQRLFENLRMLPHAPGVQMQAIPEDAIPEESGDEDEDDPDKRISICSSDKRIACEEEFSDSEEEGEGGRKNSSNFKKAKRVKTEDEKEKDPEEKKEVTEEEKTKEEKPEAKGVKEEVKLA
T1 sequence (P42336 whole entry): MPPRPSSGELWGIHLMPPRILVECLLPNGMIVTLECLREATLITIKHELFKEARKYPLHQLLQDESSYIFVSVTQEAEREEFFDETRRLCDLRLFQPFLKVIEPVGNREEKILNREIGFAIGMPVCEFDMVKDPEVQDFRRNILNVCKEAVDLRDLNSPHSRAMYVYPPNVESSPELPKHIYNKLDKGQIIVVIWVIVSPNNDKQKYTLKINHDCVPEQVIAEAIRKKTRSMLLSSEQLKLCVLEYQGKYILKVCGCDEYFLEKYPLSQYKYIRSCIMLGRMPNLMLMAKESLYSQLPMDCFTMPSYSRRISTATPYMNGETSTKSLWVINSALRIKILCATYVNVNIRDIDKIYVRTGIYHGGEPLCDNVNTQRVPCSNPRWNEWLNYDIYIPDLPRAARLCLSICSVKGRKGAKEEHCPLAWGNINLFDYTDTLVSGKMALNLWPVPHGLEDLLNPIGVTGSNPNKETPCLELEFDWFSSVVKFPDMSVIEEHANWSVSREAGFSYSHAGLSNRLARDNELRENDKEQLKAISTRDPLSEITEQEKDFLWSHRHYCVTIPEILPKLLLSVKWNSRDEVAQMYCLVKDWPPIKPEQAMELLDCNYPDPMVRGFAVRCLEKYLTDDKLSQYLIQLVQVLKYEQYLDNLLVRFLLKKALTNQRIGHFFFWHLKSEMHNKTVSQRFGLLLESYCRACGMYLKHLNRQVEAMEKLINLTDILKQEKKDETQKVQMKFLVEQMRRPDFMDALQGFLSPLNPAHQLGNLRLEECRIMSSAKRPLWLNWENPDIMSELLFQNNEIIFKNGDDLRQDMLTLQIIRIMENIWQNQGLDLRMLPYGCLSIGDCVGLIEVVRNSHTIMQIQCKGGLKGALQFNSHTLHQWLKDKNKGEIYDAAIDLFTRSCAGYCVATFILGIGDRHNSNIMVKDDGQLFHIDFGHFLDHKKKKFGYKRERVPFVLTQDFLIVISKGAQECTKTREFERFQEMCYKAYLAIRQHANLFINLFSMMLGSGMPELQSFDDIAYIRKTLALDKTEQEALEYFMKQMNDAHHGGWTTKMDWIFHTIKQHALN
T1 sequence (P27986 whole entry partner): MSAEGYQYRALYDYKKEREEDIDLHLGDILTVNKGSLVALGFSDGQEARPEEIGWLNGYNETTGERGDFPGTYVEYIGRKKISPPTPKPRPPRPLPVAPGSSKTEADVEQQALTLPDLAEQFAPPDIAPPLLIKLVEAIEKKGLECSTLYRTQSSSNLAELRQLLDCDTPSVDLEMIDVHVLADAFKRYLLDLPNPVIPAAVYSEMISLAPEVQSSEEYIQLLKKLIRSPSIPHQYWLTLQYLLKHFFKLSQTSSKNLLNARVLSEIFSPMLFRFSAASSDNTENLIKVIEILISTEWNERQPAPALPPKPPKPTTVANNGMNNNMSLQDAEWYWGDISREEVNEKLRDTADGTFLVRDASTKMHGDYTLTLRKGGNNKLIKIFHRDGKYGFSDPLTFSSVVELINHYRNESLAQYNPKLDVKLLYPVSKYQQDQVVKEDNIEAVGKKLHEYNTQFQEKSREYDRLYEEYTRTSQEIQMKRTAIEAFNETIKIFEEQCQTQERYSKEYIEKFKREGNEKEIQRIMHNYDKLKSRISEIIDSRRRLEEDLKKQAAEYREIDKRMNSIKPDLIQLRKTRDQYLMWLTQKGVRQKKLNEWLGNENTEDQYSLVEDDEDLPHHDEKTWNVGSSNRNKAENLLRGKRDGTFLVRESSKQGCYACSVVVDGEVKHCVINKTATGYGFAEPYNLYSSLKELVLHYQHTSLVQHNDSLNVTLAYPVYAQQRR

| Structure (SMILES) | IC50 (MOLT-4) [nM] | IC50 (HDAC1) [nM] | IC50 (PI3Kα) [nM] | IC50 [1] [nM] | IC50 (COLO 205) [nM] | IC50 (K-562) [µM] | IC50 (HepG2) [nM] | IC50 (MCF7) [nM] | IC50 (MV-4-11) [nM] | IC50 (PC-3) [µM] | IC50 (HCT 116) [nM] | IC50 (HDAC6) [nM] |
| --- | --- | --- | --- | --- | --- | --- | --- | --- | --- | --- | --- | --- |
| CCn1c(CN(C)Cc2ccc(/C=C/C(=O)NO)cc2)nc2c(N3CCOCC3)nc(-c3cccc(C(N)=O)c3)nc21 [compound 91, (E)-3-(9-ethyl-8-(((4-(3-(hydroxyamino)-3-oxoprop-1-en-1-yl)benzyl)(methyl)amino)methyl)-6-morpholino-9H-purin-2-yl)benzamide] | 2000 to 10000 | 100 to 1000 | 100 to 1000 | 100 to 1000 | 2000 to 10000 | 2 to 10 | – | – | – | – | – | – |
| CC(C)n1cnc2c(-c3ccc(F)c(OCCCC(=O)NO)c3)nc(N3CCOCC3)nc21 [compound 62, 4-(2-fluoro-5-(9-isopropyl-2-morpholino-9H-purin-6-yl)phenoxy)-N-hydroxybutanamide] | – | – | – | 10 to 100 | 2000 to 10000 | – | 500 to 2000 | 500 to 2000 | < 500 | 2 to 10 | – | – |
| CCC(CC)n1cnc2c(-c3cccc(OCCCC(=O)NO)c3)nc(N3CCOCC3)nc21 [compound 101, N-hydroxy-4-(3-(2-morpholino-9-(pentan-3-yl)-9H-purin-6-yl)phenoxy)butanamide] | < 500 | – | – | 10 to 100 | – | – | 500 to 2000 | < 500 | < 500 | – | 500 to 2000 | – |
| CCn1c(CNCCCCCC(=O)NO)nc2c(N3CCOCC3)nc(-c3cnc(N)nc3)nc21 [compound 87, 6-(((2-(2-aminopyrimidin-5-yl)-9-ethyl-6-morpholino-9H-purin-8-yl)methyl)amino)-N-hydroxyhexanamide] | 2000 to 10000 | 100 to 1000 | 10 to 100 | 100 to 1000 | > 10000 | > 10 | – | – | – | – | – | 100 to 1000 |
| CCn1c(CN(C)Cc2ccc(C(=O)NO)cc2)nc2c(N3CCOCC3)nc(-c3ccc(OC)nc3)nc21 [compound 96, 4-((((9-ethyl-2-(6-methoxypyridin-3-yl)-6-morpholino-9H-purin-8-yl)methyl)(methyl)amino)methyl)-N-hydroxybenzamide] | 500 to 2000 | – | – | 100 to 1000 | 500 to 2000 | 2 to 10 | 500 to 2000 | 500 to 2000 | 500 to 2000 | 2 to 10 | 500 to 2000 | – |
| CC(C)n1c(N2CCC(C(=O)NO)CC2)nc2c(N3CCOCC3)nc(-c3cnc(N)nc3)nc21 [compound 86, 1-(2-(2-aminopyrimidin-5-yl)-9-isopropyl-6-morpholino-9H-purin-8-yl)-N-hydroxypiperidine-4-carboxamide] | 500 to 2000 | 1000 to 10000 | 10 to 100 | 1000 to 10000 | 2000 to 10000 | 2 to 10 | – | – | – | – | – | – |
| CCn1c(CN(C)Cc2ccc(/C=C/C(=O)NO)cc2)nc2c(N3CCOCC3)nc(-c3ccc(C(N)=O)cc3)nc21 [compound 90, (E)-4-(9-ethyl-8-(((4-(3-(hydroxyamino)-3-oxoprop-1-en-1-yl)benzyl)(methyl)amino)methyl)-6-morpholino-9H-purin-2-yl)benzamide] | 2000 to 10000 | 100 to 1000 | 100 to 1000 | 100 to 1000 | 2000 to 10000 | 2 to 10 | – | – | – | – | – | – |
| CC(C)n1ccc2c(-c3cccc(OCCCC(=O)NO)c3)nc(N3CCCC3)nc21 [compound 75, N-hydroxy-4-(3-(7-isopropyl-2-(pyrrolidin-1-yl)-7H-pyrrolo[2,3-d]pyrimidin-4-yl)phenoxy)butanamide] | – | – | – | 10 to 100 | – | – | 2000 to 10000 | 500 to 2000 | < 500 | 2 to 10 | 500 to 2000 | – |
| CCn1c(CN(C)Cc2ccc(/C=C/C(=O)NO)cc2)nc2c(N3CCOCC3)nc(-c3cccc(NC(C)=O)c3)nc21 [compound 92, (E)-3-(4-((((2-(3-acetamidophenyl)-9-ethyl-6-morpholino-9H-purin-8-yl)methyl)(methyl)amino)methyl)phenyl)-N-hydroxyacrylamide] | 2000 to 10000 | 100 to 1000 | 100 to 1000 | 100 to 1000 | 2000 to 10000 | 2 to 10 | – | – | – | – | – | 100 to 1000 |
